Data published in paper PMC10582583, “The novel cyclophilin inhibitor C105SR reduces hepatic ischaemia–reperfusion injury via mitoprotection” (JHEP Reports, 2023).

What was measured:
CypD = CypD (Homo sapiens, UniProt P30405); assay: CypD PPIase activity, chymotrypsin-coupled assay; type: biochemical; conditions: for inhibition of CypD PPIase activity by diastereoisomers: 10 μM (Fig. 2A); for IC50: Table 2, enzyme assay
[1] = test system: isolated mouse liver mitochondria; assay: Calcium retention capacity (CRC) assay in isolated liver mitochondria; type: biochemical; conditions: for mitochondrial CRC vs maximum effect of CsA: 5 μM concentration and above (Fig. 2E); for mitochondrial CRC vs CsA and ALV: 0.5 and 1 μM (Fig. 2E); for maximal mitochondrial CRC, diastereoisomer vs racemic mixture: Fig. 2E; for mitochondrial CRC vs control: diastereoisomers at 100 μM (Fig. 2C); for EC50: isolated mouse liver mitochondria
AML-12 cells [2] = assay: mPTP opening, CoCl2-calcein AM fluorescence-quenching assay, hypoxia/reoxygenation; type: cell-based, mouse; conditions: for prevention of mPTP opening (loss of calcein fluorescence): 1 μM, 4 h hypoxia, 1 h reoxygenation
Description: We next evaluated the ability of compounds C105SR and C110SR to inhibit mPTP opening in cells. The hepatocyte cell line AML-12 was subjected to 4 h of hypoxia followed by 1 h of reoxygenation and mPTP opening was monitored using the CoCl2-calcein-acetoxymethyl ester (AM) fluorescence-quenching method.[19] Calcein-AM is a membrane permeable fluorophore which passively diffuses in all subcellular compartments including mitochondria. In the cell, the AM group of the fluorophore is cleaved by ubiquitous intracellular esterases, generating a hydrophilic product that is retained within the cell. The cells are then loaded with the divalent cobalt cation (Co^2+), which quenches calcein fluorescence in all subcellular compartments except the mitochondrial matrix, because the inner mitochondrial membrane is impermeable to cobalt. However, when mPTP is open, cobalt enters mitochondria and quenches mitochondrial calcein fluorescence. […]
(§1) Hypoxia/reoxygenation (H/R) in vitro model. AML-12 mouse hepatocyte line was obtained from American Type Culture Collection (ATCC) and maintained in DMEM/F12 culture medium at 37°C with 5% CO2. HepaRG human hepatocyte line was obtained from American Type Culture Collection (ATCC) and maintained in William’S E culture medium at 37°C with 5% CO2.When indicated, cells were incubated in phosphate buffered saline at 37°C in a hypoxic chamber filled with 94% N2, 1% O2, 5% CO2 for 4 h to mimic ischemic conditions. Then, cells were transferred to a CO2 incubator at 37°C in regular DMEM/F12 culture medium for 1 or 2 h under normoxic conditions (74% N2, 21% O2, 5% CO2). SMCypIs or vehicle (DMSO) were added during the hypoxia period, during the reoxygenation period, or during both. CsA and ALV were used as positive controls for hepatic protection against H/R injury.
Monitoring of mPTP opening. mPTP opening was monitored in AML-12 cells using the CoCl2-calcein AM fluorescence-quenching assay. Cells were loaded with 1 µM calcein-AM (green) for 20 min. Then, 1 mM CoCl2 was added and cells were incubated for another 10 min. Cells were washed and subjected to 4 h of hypoxia followed by 1 h of reoxygenation. Calcein fluorescence was measured using a spectrofluorimeter at excitation and emission wavelengths of 485 nm and 535 nm, respectively. Images were acquired using a standard inverted fluorescence microscope (Zeiss Axio, […]
media during the entire H/R period. Images shown are representative images of 12-18 images. […]
Optical density of purple formazan product was measured at 550 nm. […]

AML-12 cells [3] = assay: LDH release, hypoxia/reoxygenation; type: cell-based, mouse; conditions: for inhibition of LDH release / LDH release: 4 h hypoxia, 2 h reoxygenation; for LDH release: applied during hypoxia and reoxygenation
Description: (§2) As expected, cells subjected to hypoxia/reoxygenation were characterised by greater LDH release and reduced cell viability as compared to untreated controls (Fig. 4A and 4B). […]
as §1, with “injury. […]” for “injury.”
Cell viability assays. Lactate dehydrogenase (LDH) release in culture medium was assessed using the commercially non-radioactive CytoTox-96 kit (Promega, Madison, Wisconsin) following the manufacturer’s instructions. Briefly, cell culture media were collected and the LDH activity was determined by measuring absorbance at 491 nm with a spectrometer (Multiskan skyHigh). For 3-(4,5-dimethylthiazol-2-yl)-2,5-diphenyltetrazolium bromide (MTT) assay, cells were incubated with a solution of MTT (0.5 mg/mL) for 2 h at 37°C. The medium was then removed and 50 µL DMSO was added to each well. Optical density of purple formazan product was measured at 550 nm. Cell viability was expressed as a percentage of the untreated control.

AML-12 cells [4] = assay: Cell viability by MTT assay, hypoxia/reoxygenation; type: cell-based, mouse; conditions: 4 h hypoxia, 2 h reoxygenation; for cell viability (MTT): applied during hypoxia and reoxygenation
Description: as §2
Hypoxia/reoxygenation (H/R) in vitro model. […]
as §1, with “Collection” for “Hypoxia/reoxygenation (H/R) in vitro model. AML-12 mouse hepatocyte line was obtained from American Type Culture Collection (ATCC) and maintained in DMEM/F12 culture medium at 37°C with 5% CO2. HepaRG human hepatocyte line was obtained from American Type Culture Collection”, “injury. […]” for “injury.”
Cell viability assays. […]
dimethylthiazol-2-yl)-2,5-diphenyltetrazolium bromide (MTT) assay, cells were incubated with a solution of MTT (0.5 mg/mL) for 2 h at 37°C. The medium was then removed and 50 µL DMSO was added to each well. Optical density of purple formazan product was measured at 550 nm. Cell viability was expressed as a percentage of the untreated control.

Sequence of CypD (P30405 30-207): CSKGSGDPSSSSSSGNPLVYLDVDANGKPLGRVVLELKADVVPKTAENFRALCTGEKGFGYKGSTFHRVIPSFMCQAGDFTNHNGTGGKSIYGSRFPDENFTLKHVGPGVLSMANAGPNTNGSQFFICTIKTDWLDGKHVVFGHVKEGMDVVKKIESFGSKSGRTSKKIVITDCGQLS

SMILES | inhibition of CypD PPIase activity by diastereoisomers (CypD) | IC50 (CypD) [nM] | mitochondrial CRC vs maximum effect of CsA [1] | mitochondrial CRC vs CsA and ALV [1] | maximal mitochondrial CRC, diastereoisomer vs racemic mixture [1] | mitochondrial CRC vs control [1] | EC50 [1] [nM] | inhibition of mPTP opening (AML-12 cells [2]; 0.5 μM) | prevention of mPTP opening (loss of calcein fluorescence) (AML-12 cells [2]) | inhibition of cell death (AML-12 cells [3]; 0.5 μM) | inhibition of LDH release (AML-12 cells [3]; 0.5 μM) | LDH release (AML-12 cells [3]) | viability at 0.5 µM (AML-12 cells [4]; Mus musculus, AML12, 0.5 μM, read-out: increase in cell viability) [%] | cell viability (MTT) (AML-12 cells [4]) | increase in cell viability (AML-12 cells [4]; 0.5 μM)
COc1ccc(Br)cc1[C@H](NC(=O)NCc1ccc2c(c1)CCCN2)C(=O)N1CCC[C@@H]1c1cccc2ccsc12 [Compound C105SR, 1-((S)-2-((R)-2-(benzo[b]thiophen-7-yl)pyrrolidin-1-yl)-1-(5-bromo-2-methoxyphenyl)-2-oxoethyl)-3-((1,2,3,4-tetrahydroquinolin-6-yl)methyl)urea] | inhibited CypD PPIase activity | 5 ± 1 | stronger effect than the maximum effect achieved by CsA | comparable to those of CsA and ALV | 595 ± 38 nmol Ca2+/mg of mitochondrial | greater than control mitochondrial CRC | 50 ± 20 | inhibited | substantially prevented | inhibited | potent activity inhibiting LDH release | reduced LDH release | ~75 | increased cell viability | 
COc1ccc(Br)cc1[C@H](NC(=O)NCc1ccc(N)cc1)C(=O)N1CCC[C@@H]1c1cccc2ccsc12 [Compound C110SR, 1-(4-aminobenzyl)-3-((S)-2-((R)-2-(benzo[b]thiophen-7-yl)pyrrolidin-1-yl)-1-(5-bromo-2-methoxyphenyl)-2-oxoethyl)urea] | inhibited CypD PPIase activity | 8 ± 2 | stronger effect than the maximum effect achieved by CsA | comparable to those of CsA and ALV | 670 ± 52 nmol Ca2+/mg of mitochondrial | greater than control mitochondrial CRC | 140 ± 20 |  | substantially prevented |  | not effective | reduced LDH release |  | increased cell viability | not effective
